Laboratory results published in patent publication US20080207728A1, “BICYCLIC ACYLTRYPTOPHANOLS” (priority 2006, published 2008).

molecular target: T1, human FSH receptor (Homo sapiens, UniProt P23945); experiment: HTRF assay for measuring cAMP in cells (FSH antagonism); type: cell-based; conditions: Table 1; hFSHR clone 16 cells (CHO cells stably transfected with the human FSH receptor), in the presence of 1e-9 mol/l hFSH, 37° C. for 2 h; read-out: IC50 (FSH-antagonistic effect in the HTRF assay)
T1 construct: expressed in transfected cells; host or cells: CHO cells (hFSHR clone 16)
T1 sequence (P23945 18-695): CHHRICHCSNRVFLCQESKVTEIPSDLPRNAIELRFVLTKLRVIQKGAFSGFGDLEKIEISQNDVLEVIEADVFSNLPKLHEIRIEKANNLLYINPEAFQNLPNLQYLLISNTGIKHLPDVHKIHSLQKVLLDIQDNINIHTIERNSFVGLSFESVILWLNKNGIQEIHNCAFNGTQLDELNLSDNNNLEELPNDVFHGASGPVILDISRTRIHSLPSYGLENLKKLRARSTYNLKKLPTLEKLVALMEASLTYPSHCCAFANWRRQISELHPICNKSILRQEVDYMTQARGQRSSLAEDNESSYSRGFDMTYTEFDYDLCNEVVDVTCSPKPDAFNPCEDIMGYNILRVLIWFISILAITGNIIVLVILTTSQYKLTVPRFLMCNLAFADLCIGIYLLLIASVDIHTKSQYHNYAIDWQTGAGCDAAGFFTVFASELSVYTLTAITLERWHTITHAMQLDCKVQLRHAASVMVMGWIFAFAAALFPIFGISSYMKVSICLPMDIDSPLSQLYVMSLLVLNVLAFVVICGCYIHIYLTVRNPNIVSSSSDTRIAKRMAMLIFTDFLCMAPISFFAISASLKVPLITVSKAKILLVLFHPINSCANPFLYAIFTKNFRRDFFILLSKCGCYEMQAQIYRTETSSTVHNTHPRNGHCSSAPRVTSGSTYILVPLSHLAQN
Method: HTRF Assay for Measuring cAMP in Cells
The method is based on a competitive immunoassay between native cAMP, which has been produced by the cells, and cAMP which is labelled with XL665. The tracer binding was visualized by a monoclonal antibody, anti-cAMP labelled with cryptate [HTRF=homogeneous time-resolved fluorescence].
The specific signal is inversely proportional to the cAMP concentration of the samples employed.
The 665 nm/620 nm fluorescence ratio was evaluated.
The following material was used: 96-well plates for the tissue culture, 96-well plates with black edge and black base (e.g. Fluotrac 600 from Greiner), 96-well plates for the substance dilutions of polypropylene and cAMP Femtomolar (4000 wells Kit, CIS Bio International # 62AM1PEC).
The following reagents were used: BSA (bovine serum albumin) Fraction V protease-free, IBMX (3-isobutyl-1-methylxanthine), hFSH (human follicle stimulating hormone), Triton X-100 analytical grade, potassium fluoride analytical grade, G 418 (Geneticin) and Accutase.
Buffer 1 (washing and testing buffer) contained PBS, 1 mM CaCl2, 1 mM MgCl2, 0.2% glucose; 0.1% BSA, 1 mM IBMX.
Buffer 2 (2× lysis buffer) contained 1% Triton X-100 in PBS (without CaCl2 and MgCl2).
Buffer 3 (assay buffer) contained 50 mM potassium phosphate buffer (pH 7.0); 800 mM potassium fluoride; 0.2% BSA (always added fresh).
On day 1, the cells were seeded in 96-well plates (3×10^4 cells per well hFSHR clone 16 cells (CHO cells stably transfected with the human FSH receptor in 150 μl of medium).
The next day, test substance dilutions were made up. For this purpose, all the substances were diluted in ice-cold buffer 1 (with or without hFSH), and the substance dilutions were placed on ice until applied to the cells.
The cell supernatant was then aspirated off, and the cells were washed 2× with 200 μl of buffer 1. The cells were treated with 60 μl of the appropriate substance concentrations at 37° C. for 2 h. The cells were then lysed with 60 μl of buffer 2 (put onto the supernatant) (on a plate shaker at RT for 30 min).
The test conjugates (XL-665 and anti-cAMP cryptate) were diluted in buffer 3 in accordance with the manufacturers' information. The actual mixture for measurement was pipetted into a black 96-well plate (in each case 15 μl of the cell lysate diluted with 35 μl of buffer 1; firstly 25 μl of XL-665 conjugate were pipetted and, after 10 min, 25 μl of the anti-cAMP cryptate were added). This is followed by incubation at RT for 90 minutes. The measurement was carried out in a PheraStar (BMG).
Tissue Culture Conditions
Dose-effect curve (hFSH) for the human receptor: 1e-8, 3e-9, 1 e-9, 3e-10, 1 e-10, 3e-11, 1e-11, 3e-12 mol/l.
The test substances were employed in suitable dilutions in the absence (test for agonism) and in the presence of 1e-9 mol/l hFSH.
The values of the well ratio were averaged and then entered directly in SigmaPlot versus the concentrations. The maximum and minimum values were determined for each plate, and half the difference is to be regarded as IC50.

IC50 [nM] | SMILES
4000 | O=C(N[C@@H](CO)Cc1c[nH]c2ccccc12)c1cc(-c2ccc3ccccc3c2)cc2c1OCC2 [Example 43, 5-Naphthalen-2-yl-2,3-dihydro-benzofuran-7-carboxylic acid [(R)-1-hydroxymethyl-2-(1H-indol-3-yl)-ethyl]-amide]
1500 | CNC(=O)c1cc(F)cc(-c2cc3c(c(C(=O)NC(CO)Cc4c[nH]c5cccc(C)c45)c2)OCCCC3)c1 (centres unmarked) [Example 86, 7-(3-Fluoro-5-methylcarbamoyl-phenyl)-2,3,4,5-tetrahydro-benzo[b]oxepine-9-carboxylic acid [2-hydroxy-1-(4-methyl-1H-indol-3-ylmethyl)-ethyl]-amide]
2000 | N#CCc1ccc(-c2cc3c(c(C(=O)N[C@@H](CO)Cc4c[nH]c5ccccc45)c2)OCC3)cc1 [Example 73, 5-(4-Cyanomethyl-phenyl)-2,3-dihydro-benzofuran-7-carboxylic acid [(R)-1-hydroxymethyl-2-(1H-indol-3-yl)-ethyl]-amide]
50 | CNC(=O)c1ccc(C#Cc2cc3c(c(C(=O)NC(CO)Cc4c[nH]c5cc(F)ccc45)c2)OCCCC3)cc1 (centres unmarked) [Example 84, 7-(4-Methylcarbamoyl-phenylethynyl)-2,3,4,5-tetrahydro-benzo[b]oxepine-9-carboxylic acid [2-(6-fluoro-1H-indol-3-yl)-1-hydroxymethyl-ethyl]-amide]
700 | O=C(N[C@@H](CO)Cc1c[nH]c2ccccc12)c1cc(-c2ccc(O)cc2)cc2c1OCC2 [Example 51, 5-(4-Hydroxy-phenyl)-2,3-dihydro-benzofuran-7-carboxylic acid [(R)-1-hydroxymethyl-2-(1H-indol-3-yl)-ethyl]-amide]
2000 | CC(=O)c1cccc(-c2cc3c(c(C(=O)N[C@@H](CO)Cc4c[nH]c5ccccc45)c2)OCC3)c1 [Example 56, 5-(3-Acetyl-phenyl)-2,3-dihydro-benzofuran-7-carboxylic acid [(R)-1-hydroxymethyl-2-(1H-indol-3-yl)-ethyl]-amide]

SMILES | IC50 [nM]
O=C(N[C@@H](CO)Cc1c[nH]c2ccccc12)c1cc(-c2ccc3c(c2)OCO3)cc2c1OCC2 [Example 23, 5-Benzo[1,3]dioxol-5-yl-2,3-dihydro-benzofuran-7-carboxylic acid [(R)-1-hydroxymethyl-2-(1H-indol-3-yl)-ethyl]-amide] | 450

same assay, conditions: Table 2; hFSHR clone 16 cells (CHO cells stably transfected with the human FSH receptor), in the presence of 1e-9 mol/l hFSH, 37° C. for 2 h; read-out: IC50 (FSH-antagonistic effect in the HTRF assay)

IC50 [nM] | SMILES
2000 | CS(=O)(=O)c1cccc(-c2cc3c(c(C(=O)N[C@@H](CO)Cc4c[nH]c5ccccc45)c2)OCCO3)c1 [Example 116, 7-(3-Methanesulfonyl-phenyl)-2,3-dihydro-benzo[1,4]dioxine-5-carboxylic acid [(R)-1-hydroxymethyl-2-(1H-indol-3-yl)-ethyl]-amide]
800 | Nc1cccc(-c2cc3c(c(C(=O)N[C@@H](CO)Cc4c[nH]c5ccccc45)c2)OCCO3)c1 [Example 135, 7-(3-Amino-phenyl)-2,3-dihydro-benzo[1,4]dioxine-5-carboxylic acid [(R)-1-hydroxymethyl-2-(1H-indol-3-yl)-ethyl]-amide]
1000 | O=C(N[C@@H](CO)Cc1c[nH]c2ccccc12)c1cc(-c2ccc(CO)cc2)cc2c1OCCO2 [Example 96, 7-(4-Hydroxymethyl-phenyl)-2,3-dihydro-benzo[1,4]dioxine-5-carboxylic acid [(R)-1-hydroxymethyl-2-(1H-indol-3-yl)-ethyl]-amide]
1000 | N#Cc1cc(-c2cc3c(c(C(=O)N[C@@H](CO)Cc4c[nH]c5ccccc45)c2)OCCO3)ccc1F [Example 104, 7-(3-Cyano-4-fluoro-phenyl)-2,3-dihydro-benzo[1,4]dioxine-5-carboxylic acid [(R)-1-hydroxymethyl-2-(1H-indol-3-yl)-ethyl]-amide]
9000 | Cc1ccccc1-c1cc2c(c(C(=O)N[C@@H](CO)Cc3c[nH]c4ccccc34)c1)OCCO2 [Example 143, 7-o-Tolyl-2,3-dihydro-benzo[1,4]dioxine-5-carboxylic acid [(R)-1-hydroxymethyl-2-(1H-indol-3-yl)-ethyl]-amide]
200 | CNC(=O)c1ccc(-c2cc3c(c(C(=O)N[C@@H](CO)Cc4c[nH]c5ccccc45)c2)OCCO3)cc1 [Example 142, 7-(4-Methylcarbamoyl-phenyl)-2,3-dihydro-benzo[1,4]dioxine-5-carboxylic acid [(R)-1-hydroxymethyl-2-(1H-indol-3-yl)-ethyl]-amide]
130 | COC(=O)c1ccc(-c2cc3c(c(C(=O)N[C@@H](CO)Cc4c[nH]c5ccccc45)c2)OCCO3)cc1OC [Example 118, 4-{8-[(R)-1-Hydroxymethyl-2-(1H-indol-3-yl)-ethylcarbamoyl]-2,3-dihydro-benzo[1,4]dioxin-6-yl}-2-methoxy-benzoic acid methyl ester]
900 | CSc1cccc(-c2cc3c(c(C(=O)N[C@@H](CO)Cc4c[nH]c5ccccc45)c2)OCCO3)c1 [Example 100, 7-(3-Methylsulfanyl-phenyl)-2,3-dihydro-benzo[1,4]dioxine-5-carboxylic acid [(R)-1-hydroxymethyl-2-(1H-indol-3-yl)-ethyl]-amide]
950 | COc1ccc(-c2cc3c(c(C(=O)N[C@@H](CO)Cc4c[nH]c5ccccc45)c2)OCCO3)cc1F [Example 109, 7-(3-Fluoro-4-methoxy-phenyl)-2,3-dihydro-benzo[1,4]dioxine-5-carboxylic acid [(R)-1-hydroxymethyl-2-(1H-indol-3-yl)-ethyl]-amide]
70 | CNC(=O)c1ccc(-c2cc3c(c(C(=O)NC(CO)Cc4c[nH]c5c(F)cc(F)cc45)c2)OC(C)(C)CC3)cc1Cl (centres unmarked) [Example 190, 6-(3-Chloro-4-methylcarbamoyl-phenyl)-2,2-dimethyl-chroman-8-carboxylic acid [2-(5,7-difluoro-1H-indol-3-yl)-1-hydroxymethyl-ethyl]amide]

Further lines, the compound ahead of its results:

SMILES | IC50 [nM]
O=C(N[C@@H](CO)Cc1c[nH]c2ccccc12)c1cc(-c2ccc(-c3ccccc3)cc2)cc2c1OCCO2 [Example 92, 7-Biphenyl-4-yl-2,3-dihydro-benzo[1,4]dioxine-5-carboxylic acid [(R)-1-hydroxymethyl-2-(1H-indol-3-yl)-ethyl]-amide] | 500
CNC(=O)c1cccc(C#Cc2cc3c(c(C(=O)NC(CO)Cc4c[nH]c5cc(F)ccc45)c2)OCCCC3)c1 (centres unmarked) [Example 91, 7-(3-Methylcarbamoyl-phenylethynyl)-2,3,4,5-tetrahydro-benzo[b]oxepine-9-carboxylic acid [2-(6-fluoro-1H-indol-3-yl)-1-hydroxymethyl-ethyl]-amide] | 60
CNC(=O)c1ccc(-c2cc3c(c(C(=O)NC(CO)Cc4c[nH]c5ccc(F)cc45)c2)OC(C)(C)C=C3)cc1Cl (centres unmarked) [Example 89, 6-(3-Chloro-4-methylcarbamoyl-phenyl)-2,2-dimethyl-2H-chromene-8-carboxylic acid [2-(5-fluoro-1H-indol-3-yl)-1-hydroxymethyl-ethyl]-amide] | 20
